Assay results reported in US5021431A, “Imidazolyl alkyl guanidine derivatives, processes for their preparation and pharmaceutical preparations containing these compounds” (Heumann Pharma GmbH & Co., priority 1985, dated 1991).
Counter-ions that a name gives are not always drawn. Like-named read-outs stand apart in the source and are kept apart here.

How the values were obtained:
histamine-H2 receptors = target: T1, histamine-H2 receptors (Cavia porcellus, UniProt P47747); test: cell-based; parameters: species or system guinea-pig
T1 construct: determined on the isolated atrium or ileum of the guinea-pig; from tissue; host or cells: isolated right atrium of the guinea-pig
Description: For determining the H2 -agonistic activity (pD2 -values), use is made of the method according to J. M. VAN ROSSUM, (1963), Cumulative dose-response curves, II, Technique for the making of dose-response curves in isolated organs and the evaluation of drug parameters, Arch. Int. Pharmacodyn. Ther. 143, 299-307.
(§1) Pharmacological Data (determined on the isolated atrium or ileum of the guinea-pig)
(§2) The values listed below represent the H2 -agonistic (pD2) and H1 -antagonistic (pA2) effect of the dual active compounds

H1 receptor = H1 receptor (Cavia porcellus, UniProt P31389); test: cell-based; settings: isolated ileum of the guinea pig; for Kb: read-out: pA2 ileum (H1-antagonistic effect) (converted)
Description: The new class of structures according to the invention has both an H1 -antagonistic and an H2 -agonistic active component. […] One recognized method for determining H1 -antagonistic activity is the determination of the pA2 -values in vitro (O. ARUNLAKSHANA and H. O. SCHILD (1959) Some quantitative uses of drug antagonists--Br. J. Pharmacol. Chemother. 14, 48-58).
as §1, §2

[1] = isolated right atrium of the guinea pig, read-out: pD2 right atrium (H2-agonistic effect) (converted)
[2] = isolated right atrium of the guinea pig

T1 sequence (P47747 whole entry): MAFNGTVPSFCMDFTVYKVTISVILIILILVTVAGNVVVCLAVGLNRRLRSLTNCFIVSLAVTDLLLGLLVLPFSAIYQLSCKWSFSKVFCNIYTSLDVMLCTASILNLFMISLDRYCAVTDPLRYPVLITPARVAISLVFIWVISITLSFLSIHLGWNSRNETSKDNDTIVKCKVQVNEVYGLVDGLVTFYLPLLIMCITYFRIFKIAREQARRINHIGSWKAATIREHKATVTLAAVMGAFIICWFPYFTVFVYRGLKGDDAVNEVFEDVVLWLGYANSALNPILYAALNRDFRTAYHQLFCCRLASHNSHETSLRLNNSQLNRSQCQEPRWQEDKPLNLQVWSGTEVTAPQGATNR
Chain of H1 receptor (P31389 whole entry): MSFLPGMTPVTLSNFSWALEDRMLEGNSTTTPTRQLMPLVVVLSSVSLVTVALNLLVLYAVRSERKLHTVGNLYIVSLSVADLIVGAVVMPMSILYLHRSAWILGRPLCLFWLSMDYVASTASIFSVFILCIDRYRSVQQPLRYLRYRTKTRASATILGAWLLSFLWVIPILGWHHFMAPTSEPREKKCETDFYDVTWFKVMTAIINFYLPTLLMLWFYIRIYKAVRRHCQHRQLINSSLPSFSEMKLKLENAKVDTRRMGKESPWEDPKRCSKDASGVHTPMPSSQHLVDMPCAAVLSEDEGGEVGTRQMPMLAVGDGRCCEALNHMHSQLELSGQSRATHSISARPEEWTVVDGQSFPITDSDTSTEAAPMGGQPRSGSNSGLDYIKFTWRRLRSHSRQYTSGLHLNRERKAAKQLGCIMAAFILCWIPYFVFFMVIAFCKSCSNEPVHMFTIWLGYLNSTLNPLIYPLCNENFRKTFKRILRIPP

EC50 (histamine-H2 receptors; [1])	Kb (H1 receptor)	pA2 ileum (H1-antagonistic effect) (H1 receptor)	pD2 right atrium (H2-agonistic effect) (histamine-H2 receptors; [2])	SMILES	EC50 (histamine-H2 receptors)
83.2 nM	316 nM			N=C(NCCCc1c[nH]cn1)NCCC(c1ccc(Br)cc1)c1ccccn1 (stereo not drawn) [Example 131, N-[3-(4-Bromophenyl)-3-(pyrid-2-yl)propyl]-N'-[3-(imidazol-4-yl)propyl]-guanidine]	
316 nM	15.8 nM			N=C(NCCCc1c[nH]cn1)NCCN(c1ccc(F)cc1)c1ccccn1 [Example 148, N^1-[3-(Imidazol-4-yl)propyl]-N^2-[2-(N-(2-pyridyl)N-(4-fluorophenyl)amino)ethyl]-guanidine trihydrochloride]	
93.3 nM	50.1 nM			N=C(NCCCc1c[nH]cn1)NCCC(c1ccccn1)c1cccs1 (stereo not drawn) [Example 134, N-[3-(Imidazol-4-yl)propyl]-N'-[3-(pyrid-2-yl)-3-(2thienyl)propyl]-guanidine]	
63.1 nM	31.6 nM			N=C(NCCCc1c[nH]cn1)NCCC(c1ccc(Cl)cc1)c1ccccn1 (stereo not drawn) [Example 129, N-[3-(4-Chlorophenyl)-3-(pyrid-2-yl)propyl]-N'-[3-(imidazol-4-yl)propyl]-guanidine]	
1950 nM	2.57 nM			NC(=NCCN(Cc1ccc(F)cc1)c1ccccn1)NCCCc1c[nH]cn1 [Example 143, N^1-[3-(1H-Imidazol-4-yl)propyl]-N^2-[2-[N-(4-fluorobenzyl)-N-(pyridin-2-yl)-amino]ethyl]-guanidine]	
234 nM	25.1 nM			N=C(NCCCc1c[nH]cn1)NCCN(Cc1ccccc1)c1ccc(F)cc1 [Example 102, N^1-[3-(4-Imidazolyl)propyl]-N^2-[2-(N-benzyl-N-(4-fluorophenyl)amino)ethyl]-guanidine trihydrochloride]	
1580 nM	8.32 nM			COc1ccc(CN(CCN=C(N)NCCCc2c[nH]cn2)c2ccccn2)cc1 [Example 142, N^1-[3-(1H-Imidazol-4-yl)propyl]-N2-[2-[N-(4-methoxybenzyl)-N-(pyridin-2-yl)-amino]ethyl]-guanidine]	
39.8 nM	52.5 nM	7.28	7.4	N=C(NCCCc1c[nH]cn1)NCCC(c1ccccc1)c1ccccn1 (stereo not drawn) [Example 127]	
112 nM		6.6		N=C(NCCCc1c[nH]cn1)NCCCC(c1ccccc1)c1ccccn1 (stereo not drawn) [Example 136, N-[3-(Imidazol-4-yl)propyl]-N'-[4-phenyl-4-(pyrid-2-yl)butyl]-guanidine]	
1100 nM	1000 nM			N=C(NCCCc1c[nH]cn1)NCCN(c1ccccc1)c1ccc(F)cc1 [Example 146, N^1-[3-(Imidazol-4-yl)propyl]-N^2-[2-N-(phenyl-N(4-fluorophenyl)amino)ethyl]-guanidine trihydrochloride]	
12.6 nM	31.6 nM			NC(=NCCC(c1ccc(F)cc1)c1ccccn1)NCCCc1cnc[nH]1 (stereo not drawn) [Example 133, N-[3-(4-Fluorophenyl)-3-(pyrid-2-yl)propyl]-N'-[3-(imidazol-4-yl)propyl]-guanidine]	
1260 nM	8.91 nM			NC(=NCCN(Cc1ccccc1)c1ccccn1)NCCCc1c[nH]cn1 [Example 140, N^1-[3-(4-imidazolyl)propyl]-N^2-[2-(N-benzyl-N-(pyrid-2-yl)-amino)ethyl]-guanidine trihydrochloride]	

The remaining lines, values behind:

SMILES	EC50 (histamine-H2 receptors; [1])	Kb (H1 receptor)	pA2 ileum (H1-antagonistic effect) (H1 receptor)	pD2 right atrium (H2-agonistic effect) (histamine-H2 receptors; [2])	EC50 (histamine-H2 receptors)
N=C(NCCCc1c[nH]cn1)NCCC(c1ccccc1)c1ccccc1 [Example 78, N-[3-(Imidazol-4-yl)propyl]-N'-(3.3-diphenylpropyl)-guanidine]	67.6 nM	63.1 nM	7.20		
N=C(NCCCc1c[nH]cn1)NCCN(Cc1ccc(Cl)cc1)c1ccccn1 [Example 141, N^1-[3-(1H-Imidazol-4-yl)propyl]-N^2-[2-[N-(4-chlorobenzyl) N-(pyridin-2-yl).amino]ethyl]-guanidine]	1000 nM	12.3 nM			
Cc1[nH]c(CN(C)C)nc1CSCCNC(=N)NCCCc1c[nH]cn1 [Example 51, N-[2-[(2-Dimethylaminomethyl-5-methylimidazol-4-yl)methylthio]ethyl]-N'-[3-(imidazol-4-yl)propyl]-guanidine]	67.6 nM	3160 nM			
N=C(NCCCCc1cccnc1)NCCCc1c[nH]cn1 [Example 12, N^1-[4-(Pyridin-3-yl)butyl]-N^2-[3-(1H-imidazol-4-yl)propyl]guanidine trihydrochloride]	200 nM	562 nM			
N=C(NCCCc1c[nH]cn1)NCCSC(c1ccccc1)c1ccccn1 (stereo not drawn) [Example 123, N-[3-(Imidazol-4-yl)propyl]-N'-[2-[(phenyl(pyrid-2-yl)methyl)thio]ethyl]-guanidine]	224 nM		7.0		
Cc1ccc(N(C)CCCNC(=N)NCCCc2c[nH]cn2)nc1 [Example 10, N^1-[3-[N-(5-Methyl-pyridin-2-yl)-methylamino]propyl]-N^2-[3-(1H-imidazol-4-yl)propyl]guanidine trihydrochloride]	891 nM	112 nM			
Cc1cc(Br)cnc1N(CCNC(=N)NCCCc1c[nH]cn1)Cc1ccccc1 [Example 144, N^1-[2-[N-(5-Bromo-3-methyl-pyridin-2-yl)-benzylamino]ethyl]-N^2-[3-(1H-imidazol-4-yl)propyl]-guanidine trihydrochloride]	6030 nM	398 nM			
N=C(NCCCc1c[nH]cn1)NCCCC(c1ccccc1)c1ccccc1 [Example 97, N-[3-(Imidazol-4-yl)propyl]-N'(4,4-diphenylbutyl)-guanidine]	200 nM	158 nM			
Cc1[nH]cnc1CCCNC(=N)NCCC(c1ccccc1)c1ccccc1 [Example 96, N-[3-(5-Methylimidazol-4-yl)propyl]-N'-(3,3-diphenylpropyl)-guanidine]	126 nM	126 nM	6.9		
N=C(NCCCc1c[nH]cn1)NCCN(c1ccccc1)c1ccccc1 [Example 145, N^1-[3-(Imidazol-4-yl)propyl]-N^2-[2-(diphenylamino)ethyl]-guanidine trihydrochloride]	6030 nM	398 nM			
N=C(NCCCc1c[nH]cn1)NCCSCc1cccs1 [Example 105, N-[3-(Imidazol-4-yl)propyl]-N'-[2-(2-thenylthio)ethyl]-guanidine]		1230 nM			51.3 nM
CC(CSCc1ccccn1)NC(=N)NCCCc1c[nH]cn1 (stereo not drawn) [Example 121, N-[3-(Imidazol-4-yl)propyl]-N'-[1-methyl-2-[(pyrid-2-yl)methylthio]-ethyl]-guanidine]	51.3 nM	2000 nM			
N=C(NCCCc1c[nH]cn1)NCCN(Cc1ccccc1)c1ccc(Cl)cc1 [Example 103, N^1-[3-(4-Imidazolyl)propyl]-N^2-[2-(N-benzyl-N-(4-chlorophenyl)amino)ethyl]-guanidine trihydrochloride]	2690 nM	29.5 nM			
Cc1ccc(C(SCCNC(=N)NCCCc2c[nH]cn2)c2ccccc2)cc1 (stereo not drawn) [Example 62, N-[3-(Imidazol-4-yl)propyl]-N'-[2-[(p-methyl-α-phenylbenzyl)thio]ethyl]-guanidine]	3890 nM	11500 nM			
CC(SCCNC(=N)NCCCc1c[nH]cn1)c1ccccc1 (stereo not drawn) [Example 60, N-[3-(Imidazol-4-yl)propyl]-N'-[2-[(1-phenylethyl)thio]ethyl]-guanidine]	288 nM	2290 nM			
N=C(NCCCc1c[nH]cn1)NCCN(Cc1ccccc1)c1ccccc1 [Example 101, N^1-[3-(4-Imidazolyl)propyl]-N^2-[2-(N-benzyl-N-phenylamino)-ethyl]-guanidine trihydrochloride]			7.41	6.15	
N=C(NCCCc1c[nH]cn1)NCCN(c1ccccc1)c1ccccn1 [Example 147, N^1-[3-(Imidazol-4-yl)propyl]-N^2-[2-(N-(2-pyridyl)-N-phenylamino)ethyl]-guanidine trihydrochloride]	100 nM	126 nM			
N=C(NCCCc1c[nH]cn1)NCCN(Cc1ccccc1)c1ccc(Br)cc1 [Example 104, N^1-[3-(4-Imidazolyl)propyl]-N^2-[2-(N-benzyl-N-(4-bromophenyl)amino)ethyl]-guanidine trihydrochloride]	6920 nM	57.5 nM			
Cc1cc(Br)cnc1CCCCNC(=N)NCCCc1c[nH]cn1 [Example 17, N^1-[4-(5-Bromo-3-methyl-pyridin-2-yl)butyl]-N^2 [3-(1H-imidazol-4-yl)propyl]-guanidine trihydrochloride]	1200 nM	3.24 nM			
